11 compounds from patent US20090227601A1, “Bradykinin 1 Receptor Antagonists” (Amgen Inc., priority 2005, published 2009) can be followed below.

One may read the IC50 as the midpoint of a concentration-inhibition curve.

The experiment has as its target T1, hB2 receptor (Homo sapiens, UniProt P30411).
T1 construct: host or cells: CHO-K1
T1 sequence (P30411 1-391): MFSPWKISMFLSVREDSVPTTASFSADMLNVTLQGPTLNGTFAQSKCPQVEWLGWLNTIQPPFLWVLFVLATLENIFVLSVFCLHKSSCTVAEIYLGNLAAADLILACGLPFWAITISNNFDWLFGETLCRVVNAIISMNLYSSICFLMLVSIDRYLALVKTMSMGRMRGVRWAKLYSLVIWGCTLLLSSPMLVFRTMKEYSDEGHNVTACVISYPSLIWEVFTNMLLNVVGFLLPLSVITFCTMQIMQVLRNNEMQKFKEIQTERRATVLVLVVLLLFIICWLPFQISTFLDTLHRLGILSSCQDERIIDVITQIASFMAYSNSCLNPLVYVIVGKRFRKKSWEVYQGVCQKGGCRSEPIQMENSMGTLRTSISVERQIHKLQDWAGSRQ
Nature of the experiment: In vitro Assay of hB2 Receptor Function using Calcium Flux. The experiment is classed as cell-based. The following applies: recombinant CHO cells, antagonist IC50 against agonist at EC80. The method, then:
In vitro Assay of hB2 Receptor Function using Calcium Flux The intracellular calcium flux induced by hB2 receptor activation was analyzed using an hB2 recombinant cell line (CHO-K1) purchased from PerkinElmer (Catalog Number: RBHB2C000EA) on a fluorometric imaging plate reader (FLIPR). […] Culture medium was changed every other day. 24 h prior to the FLIPR assay, the hB2/CHO cells were washed once with PBS (Invitrogen) and 10 mL of Versene (1:5000, Invitrogen, Cat# 15040-066) was added to each flask. After 5 min incubation at 37° C., Versene was removed and cells were detached from the flask and resuspended in culture medium. Cells were counted and 25,000 cells/well were plated in 96-well black-sided clear bottom assay plates (Costar #3904). Cells were incubated in a 37° C. CO2 incubator overnight. The media was aspirated from the cells and replaced with 65 μL of dye-loading buffer. The loading buffer was prepared by diluting a stock solution of 0.5 mM Fluo-4 AM (Molecular Probes, dissolved in DMSO containing 10% [w/v] pluronic acid) to a concentration of 1 μM in Clear Dulbecco's Modified Eagle Medium (DMEM) containing 0.1% BSA, 20 mM HEPES, and 2.5 mM probenecid. The cells were dye-loaded for 1 h at RT. The excess dye was removed by washing the cells 2× with assay buffer. The assay buffer consists of Hank's Balanced Salt Solution (HBSS) containing 20 mM HEPES, 0.1% BSA, and 2.5 mM probenecid. After the wash cycles, a volume of 100 μL was left in each well, and the plate was ready to be assayed in the FLIPR System. […] The cell plate and the compound plates were loaded onto the FLIPR and during the assay, fluorescence readings are taken simultaneously from all 96 wells of the cell plate. Ten 1-second readings were taken to establish a stable baseline for each well, then 25 μL from the B1 antagonist plate was rapidly (50 μL/sec.) added. The fluorescence signal was measured in 1-second (1 min) followed by 6-second (2 min) intervals for a total of 3 min to determine if there is any agonist activity with the compounds.
In general terms: A change in cytosolic calcium serves as a functional read-out for many receptors and channels.
With “2-((2R)-1-((4-methylphenyl)sulfonyl)-3-oxo-1,2,3,4-tetrahydro-2-pyrazinyl)-N-((1R,2R,4R)-1,7,7-trimethylbicyclo[2.2.1]hept-2-yl)acetamide; and 2-((2R)-1-((4-methylphenyl)sulfonyl)-3-oxo-1,2,3,4-tetrahydro-2-pyrazinyl)-N-((1R,2S,4R)-1,7,7-trimethylbicyclo[2.2.1]hept-2-yl)acetamide [T-1-2]”, the half-inhibitory concentration (IC50) came out at 0.092 µM.
The value for `CO[C@H]1CC[C@H](NC(=O)C[C@@H]2C(=O)NC=CN2S(=O)(=O)c2ccc(C)cc2)CC1` [T-1-30, N-(trans-4-(methyloxy)cyclohexyl)-2-((2R)-1-((4-methylphenyl)sulfonyl)-3-oxo-1,2,3,4-tetrahydro-2-pyrazinyl)acetamide] was 0.19 µM.
Turning to `Cc1ccc(C2CCN(C(=O)C[C@@H]3C(=O)NC=CN3S(=O)(=O)c3ccc(C)cc3)CC2)cc1` [T-3-48, (3R)-3-(2-(4-(4-methylphenyl)-1-piperidinyl)-2-oxoethyl)-4-((4-methylphenyl)-sulfonyl)-3,4-dihydro-2(1H)-pyrazinone], the IC50 was found to be 1.6 µM.
On to `Cc1ccc(S(=O)(=O)N2C=CNC(=O)[C@H]2CC(=O)NC2CC(C)(C)N(C)C(C)(C)C2)cc1` [T-1-77, 2-((2R)-1-((4-methylphenyl)sulfonyl)-3-oxo-1,2,3,4-tetrahydro-2-pyrazinyl)-N-(1,2,2,6,6-pentamethyl-4-piperidinyl)acetamide], for which the IC50 was found to be 0.02 µM.
With “2-((2R)-1-((4-chloro-2,5-dimethylphenyl)sulfonyl)-3-oxo-1,2,3,4-tetrahydro-2-pyrazinyl)-N-((4S)-3,3-dimethyl-4-piperidinyl)acetamide; and 2-((2R)-1-((4-chloro-2,5-dimethylphenyl)sulfonyl)-3-oxo-1,2,3,4-tetrahydro-2-pyrazinyl)-N-((4R)-3,3-dimethyl-4-piperidinyl)acetamide [T-1-48]” the figure was 0.4 µM.
With `COc1ccc(C2CN(C(=O)C[C@@H]3C(=O)NC=CN3S(=O)(=O)c3ccc(C)cc3)CCS2)cc1` (stereo partly drawn) [T-3-2, (3R)-3-(2-(2-(4-(methyloxy)phenyl)-4-thiomorpholinyl)-2-oxoethyl)-4-((4-methyl-phenyl)sulfonyl)-3,4-dihydro-2(1H)-pyrazinone] the figure was 0.13 µM; with `Cc1ccc(S(=O)(=O)N2C=CNC(=O)[C@H]2CC(=O)NC2CCC(N3CCCC3)CC2(C)C)cc1` (mixture of isomers) [T-1-50], 0.0013 µM.
“N-((1R)-2,2-dimethyl-4-oxocyclohexyl)-2-((2R)-1-((4-methylphenyl)sulfonyl)-3-oxo-1,2,3,4-tetrahydro-2-pyrazinyl)acetamide; and N-((1S)-2,2-dimethyl-4-oxocyclohexyl)-2-((2R)-1-((4-methylphenyl)sulfonyl)-3-oxo-1,2,3,4-tetrahydro-2-pyrazinyl)acetamide [T-1-37]”: the IC50 worked out at 0.019 µM.
For `Cc1ccc(S(=O)(=O)N2C=CNC(=O)[C@H]2CC(=O)NC2CCC(N3CCCC(F)C3)CC2(C)C)cc1` (stereo partly drawn) [T-1-41, N-(4-(3-fluoro-1-piperidinyl)-2,2-dimethylcyclohexyl)-2-((2R)-1-((4-methyl-phenyl)sulfonyl)-3-oxo-1,2,3,4-tetrahydro-2-pyrazinyl)acetamide], the IC50 is 0.002 µM.
With `COCCN1CC[C@@H](NC(=O)C[C@@H]2C(=O)NC=CN2S(=O)(=O)c2ccc(C)cc2)C(C)(C)C1` [T-1-120, N-((4R)-3,3-dimethyl-1-(2-(methyloxy)ethyl)-4-piperidinyl)-2-((2R)-1-((4-methylphenyl)sulfonyl)-3-oxo-1,2,3,4-tetrahydro-2-pyrazinyl)acetamide], the IC50 was found to be 0.001 µM.
The value for `Cc1ccc(S(=O)(=O)N2C=CNC(=O)[C@H]2CC(=O)N(C)C2CCN(C)CC2)cc1` [T-2-1, 2-((2R)-1-((4-methylphenyl)sulfonyl)-3-oxo-1,2,3,4-tetrahydro-2-pyrazinyl)-N-methyl-N-(1-methyl-4-piperidinyl)acetamide] was 0.003 µM.
